From ChEMBL document CHEMBL5126547, “Inhibition of the drug efflux activity of Ptch1 as a promising strategy to overcome chemotherapy resistance in cancer cells” (Eur J Med Chem, 2022)

How the values were obtained:
[1] = biological target: T1, Protein patched homolog 1 (Homo sapiens) (UniProt Q13635); assay: Inhibition of Ptch1 in human adrenocortical carcinoma cells assessed as fold increase doxorubicin cytotoxicity; type: cell-based; details: Adrenocortical carcinoma cell
T1 sequence (whole entry): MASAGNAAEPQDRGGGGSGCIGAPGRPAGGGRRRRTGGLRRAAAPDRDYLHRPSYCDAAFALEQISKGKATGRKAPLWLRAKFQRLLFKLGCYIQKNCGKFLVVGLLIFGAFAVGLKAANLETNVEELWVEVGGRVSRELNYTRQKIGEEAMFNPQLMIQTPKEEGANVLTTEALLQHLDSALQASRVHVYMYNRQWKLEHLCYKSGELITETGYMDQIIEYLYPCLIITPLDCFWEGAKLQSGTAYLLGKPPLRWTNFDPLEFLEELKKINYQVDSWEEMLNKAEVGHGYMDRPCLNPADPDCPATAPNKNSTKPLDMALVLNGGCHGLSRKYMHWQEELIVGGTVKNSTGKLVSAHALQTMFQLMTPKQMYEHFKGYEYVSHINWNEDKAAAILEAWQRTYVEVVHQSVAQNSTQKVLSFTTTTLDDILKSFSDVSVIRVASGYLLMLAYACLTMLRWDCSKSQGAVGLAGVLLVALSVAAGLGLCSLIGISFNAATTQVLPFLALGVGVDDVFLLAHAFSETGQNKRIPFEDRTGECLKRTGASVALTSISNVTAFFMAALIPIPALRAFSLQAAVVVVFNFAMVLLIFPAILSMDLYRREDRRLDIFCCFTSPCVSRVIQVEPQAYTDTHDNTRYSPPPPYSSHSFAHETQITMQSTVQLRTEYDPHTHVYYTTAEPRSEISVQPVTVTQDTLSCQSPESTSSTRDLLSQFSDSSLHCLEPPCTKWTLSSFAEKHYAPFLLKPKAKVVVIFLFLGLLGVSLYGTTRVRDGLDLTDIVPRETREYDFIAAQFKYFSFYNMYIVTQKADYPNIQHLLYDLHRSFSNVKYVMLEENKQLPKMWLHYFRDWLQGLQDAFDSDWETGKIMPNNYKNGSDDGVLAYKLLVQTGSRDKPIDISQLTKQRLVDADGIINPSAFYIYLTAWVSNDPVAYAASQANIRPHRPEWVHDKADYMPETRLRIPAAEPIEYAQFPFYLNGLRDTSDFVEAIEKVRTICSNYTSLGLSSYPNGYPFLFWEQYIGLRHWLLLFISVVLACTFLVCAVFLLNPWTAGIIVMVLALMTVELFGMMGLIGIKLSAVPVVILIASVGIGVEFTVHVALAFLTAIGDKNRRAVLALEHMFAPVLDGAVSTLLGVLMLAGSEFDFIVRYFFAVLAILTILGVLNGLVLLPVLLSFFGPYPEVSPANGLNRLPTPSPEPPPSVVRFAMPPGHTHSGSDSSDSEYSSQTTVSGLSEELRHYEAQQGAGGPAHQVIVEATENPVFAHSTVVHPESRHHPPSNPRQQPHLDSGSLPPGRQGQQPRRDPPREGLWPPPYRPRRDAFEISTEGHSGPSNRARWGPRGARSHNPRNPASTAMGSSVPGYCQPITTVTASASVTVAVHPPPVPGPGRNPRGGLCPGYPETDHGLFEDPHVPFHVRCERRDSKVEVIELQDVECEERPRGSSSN

[2] = Metabolic stability in rat liver microsomes assessed as half life; type: ADME, Microsome
[3] = Lipophilicity, logD of compound; type: physicochemical; details: octanol/water
[4] = biological target: T1, Protein patched homolog 1 (Homo sapiens); assay: Inhibition of Ptch1 in human Melanoma cells assessed as fold increase doxorubicin cytotoxicity; type: cell-based; details: Melanoma cell
[5] = Inhibition of Ptch1 in vemurafenib-resistant human A-375 BRAF V600E cells assessed as fold increase in doxorubicin cytotoxicity
[6] = Inhibition of Ptch1 in vemurafenib-resistant human A-375 BRAF V600E cells assessed as fold increase in cisplatin cytotoxicity
[7] = biological target: T1, Protein patched homolog 1 (Homo sapiens); assay: Inhibition of Ptch1 in human Melanoma cells assessed as fold increase cisplatin cytotoxicity; type: cell-based; details: Melanoma cell
[8] = In vivo inhibition of Ptch1 in vemurafenib-resistant human A-375 BRAF V600E cells xenografted in Nu/Nu NMRI mouse assessed as fold increase in vemurafenib anticancer activity at 5 mg/kg, ip administered 5 days a week measured on after 23 days of first treatment relative to control; type: functional; details: time 5 day
[9] = biological target: T1, Protein patched homolog 1 (Homo sapiens); assay: Inhibition of Ptch1 in human Melanoma cells assessed as fold increase vemurafenib cytotoxicity; type: cell-based; details: Melanoma cell

Row | half-life [2] [min] | logD [3] | Structure (SMILES) | fold change (FC) [1] | fold change (FC) [4] | fold change (FC) [5] | fold change (FC) [6] | fold change (FC) [7] | fold change (FC) [8] | fold change (FC) [9]
1 | > 60 | 2.9 | COc1ccc(CCN2CCC(Nc3nc4ccccc4n3Cc3ccc(F)cc3)CC2)cc1 [ASTEMIZOLE] | 10 |  |  |  |  |  | 
2 | 31 | 3.5 | CSc1ccc2c(c1)C(N1CCN(C)CC1)Cc1ccccc1S2 (stereo unspecified) [METITEPINE] | 6.6 | 5.8 | 15 | 3.6 | 3 | 10 | 4
3 | 1 |  | COc1cc(C)c(CC/C(C)=C/Cc2cc(O)ccc2O)c(C)c1C [PANICEIN A HYDROQUINONE] | 128 |  | 68 |  |  | 10 | 
